# Data taken from patent US7511059B2, “Thiazolidinones, their production and use as pharmaceutical agents” (Schering Ag, priority 2005, dated 2009).
# What was measured:
# Recombinant human Plk-1 = target: T1, Recombinant human Plk-1 (Homo sapiens, UniProt P53350); test: PLK Enzyme Assay; type: biochemical; conditions: biotinylated casein and 33P-γ-ATP as substrate, 90 minutes at room temperature, read-out: PLK-1 IC50 [nM] Inhibition
# T1 construct: 6xHis; made in house; host or cells: baculovirus-infected Hi5 insect cells
# T1 sequence (P53350 whole entry): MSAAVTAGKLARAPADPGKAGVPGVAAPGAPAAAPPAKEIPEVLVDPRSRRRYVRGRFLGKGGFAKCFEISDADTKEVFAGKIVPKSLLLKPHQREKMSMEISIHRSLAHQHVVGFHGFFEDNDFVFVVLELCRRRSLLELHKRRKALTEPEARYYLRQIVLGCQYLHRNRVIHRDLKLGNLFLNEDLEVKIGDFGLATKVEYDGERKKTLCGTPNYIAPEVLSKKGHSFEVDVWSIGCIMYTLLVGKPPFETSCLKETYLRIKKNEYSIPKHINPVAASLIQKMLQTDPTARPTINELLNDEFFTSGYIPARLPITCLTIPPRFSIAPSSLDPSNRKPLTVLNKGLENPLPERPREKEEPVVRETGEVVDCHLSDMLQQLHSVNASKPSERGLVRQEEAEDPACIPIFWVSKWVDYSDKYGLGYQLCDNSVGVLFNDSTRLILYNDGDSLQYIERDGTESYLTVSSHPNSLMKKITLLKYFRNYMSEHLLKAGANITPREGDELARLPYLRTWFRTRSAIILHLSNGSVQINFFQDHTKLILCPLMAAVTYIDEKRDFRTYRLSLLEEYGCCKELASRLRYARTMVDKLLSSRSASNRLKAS
# Method: Recombinant human Plk-1 (6× His) was purified from baculovirus-infected insect cells (Hi5).
# 10 ng of (produced in a recombinant manner and purified) PLK enzyme is incubated for 90 minutes at room temperature with biotinylated casein and 33P-γ-ATP as a substrate in a volume of 15 μl in 384-well Greiner small-volume microtiter plates (final concentrations in the buffer: 660 ng/ml of PLK; 0.7 lmol of casein, 0.5 gmol of ATP incl. 400 nCi/ml of 33P-γ-ATP; 10 mmol of MgCl2, 1 mmol of MnCl2; 0.01% NP40; 1 mmol of DTT, protease inhibitors; 0.1 mmol of Na2VO3 in 50 mmol of HEPES, pH 7.5). To complete the reaction, 5 μl of stop solution (500 μmol of ATP; 500 mmol of EDTA; 1% Triton X100; 100 mg/ml of streptavidin-coated SPA beads in PBS) is added. After the microtiter plate is sealed by film, the beads are sedimented by centrifuging (10 minutes, 1500 rpm). The incorporation of 33P-γ-ATP in casein is intended as a measurement of enzyme activity by β-counting.
# Test substances are used in various concentrations (0 μmol, as well as in the range of 0.01-30 μmol). The final concentration of the solvent dimethyl sulfoxide is 1.5% in all batches.
# [1] = system: human MaTu breast tumor cells; test: Proliferation Assay; type: cell-based; conditions: 96 h, incubated 4 days, crystal violet, read-out: Inhibition of the Tumor Cell Proliferation (MaTu) IC50
# Method: Cultivated human MaTu breast tumor cells were flattened out at a density of 5000 cells/measuring point in a 96-well multititer plate in 200 μl of the corresponding growth medium. After 24 hours, the cells of one plate (zero-point plate) were colored with crystal violet (see below), while the medium of the other plates was replaced by fresh culture medium (200 μl), to which the test substances were added at various concentrations (0 μm, as well as in the range of 0.01-30 μm; the final concentration of the solvent dimethyl sulfoxide was 0.5%). The cells were incubated for 4 days in the presence of test substances. The cell proliferation was determined by coloring the cells with crystal violet: the cells were fixed by adding 20 μl/measuring point of an 11% glutaric aldehyde solution for 15 minutes at room temperature. After three washing cycles of the fixed cells with water, the plates were dried at room temperature. The cells were colored by adding 100 μl/measuring point of a 0. 1% crystal violet solution (pH was set at 3 by adding acetic acid). After three washing cycles of the colored cells with water, the plates were dried at room temperature. The dye was dissolved by adding 100 μl/measuring point of a 10% acetic acid solution. The extinction was determined by photometry at a wavelength of 595 nm. The change of cell growth, in percent, was calculated by standardization of the measured values to the extinction values of the zero-point plate (=0%) and the extinction of the untreated (0 μm) cells (=100%).
Compound,IC50 (Recombinant human Plk-1),IC50 [1]
"CCn1c(=C(C#N)C2=NCC(C)O2)sc(=CNc2cccc(NC(=O)C(C)(C)C)c2)c1=O (mixture of isomers) [Example 15, N-(3-{[2-[1-Cyano-1-(5-methyl-4,5-dihydro-oxazol-2-yl)-meth-(E or Z)-ylidene]-3-ethyl-4-oxo-thiazolidin-(5-(E/Z))-ylidenemethyl]-amino}-phenyl)-2,2-dimethyl-propionamide]",55 nM,2100 nM
"CCn1c(=C(C#N)C2=NC(C)(C)CO2)sc(=CNc2cccc(NC(=O)COCCOC)n2)c1=O (mixture of isomers) [Example 37, N-(6-{[2-[1-Cyano-1-(4,4-dimethyl-4,5-dihydro-oxazol-2-yl)-meth-(E or Z)-ylidene]-3-ethyl-4-oxo-thiazolidin-(5-(E/Z))-ylidenemethyl]-amino}-pyridin-2-yl)-2-(2-methoxy-ethoxy)-acetamide]",69 nM,3600 nM
"CCn1c(=C(C#N)C2=N[C@@H](C)CO2)sc(=CNc2cccc(NC(=O)C(C)(C)C)c2)c1=O [Example 20, N-(3-{[2-[1-Cyano-1-((S)-4-methyl-4,5-dihydro-oxazol-2-yl)-meth-(E or Z)-ylidene]-3-ethyl-4-oxo-thiazolidin-(5-(E/Z))-ylidenemethyl]-amino-phenyl)-2,2-dimethyl-propionamide]",140 nM,3200 nM

# Stronger by IC50 (Recombinant human Plk-1), values ahead:
IC50 (Recombinant human Plk-1),IC50 [1],Compound
53 nM,1200 nM,"CCn1c(=C(C#N)C2=N[C@H]3CCC[C@H]3O2)sc(=CNc2cccc(NC(=O)C(C)(C)O)c2)c1=O (mixture of isomers) [Example 31, N-(3-{[2-[(3aS,6aR)-1-Cyano-1-4,5,6,6a-tetrahydro-3aH-cyclopentaoxazol-2-yl-meth-(E or Z)-ylidene]-3-ethyl-4-oxo-thiazolidin-(5-(E/Z))-ylidenemethyl]-amino}-phenyl)-2-hydroxy-2-methyl-propionamide]"
24 nM,1200 nM,"CCNc1cc(NC=c2sc(=C(C#N)C3=N[C@H]4CCC[C@H]4O3)n(CC)c2=O)ccn1 (mixture of isomers) [Example 38, [3-Ethyl-5-[1-(2-ethylamino-pyridin-4-ylamino)-meth-(E/Z)-ylidene]-4-oxo-thiazolidin-(2-(E or Z))-ylidene]-(3aS,6aR)-4,5,6,6a-tetrahydro-3aH-cyclopentaoxazol-2-yl-acetonitrile]"
